Measurements from patent publication US20090202565A1, “TORC POLYNUCLEOTIDES AND POLYPEPTIDES AND METHOD OF USE” (priority 2004, published 2009).
Where no end group is shown, it is not given here.

Columns and labels:
CRE-luciferase [1] = assay: CRE-luciferase reporter with dominant negative TORC1(1-44)-eGFP in HeLa cells; format: cell-based
Text: The siRNA results (Example 12) are complicated by the need to use multiple siRNAs and to block multiple TORCs. In order to efficiently block activity of all TORC proteins more readily, a dominant interfering TORC protein is designed which fuses the highly conserved 44 amino-acid CREB-binding domain of TORC1 to eGFP (T1-44eGFP). To block activity of all TORC proteins efficiently, a dominant interfering protein that should specifically block the ability of all TORC's to interact with CREB1 is designed. The CREB1 interaction domain of TORC proteins is present in the first 44 amino acids of TORC1. The N-terminal 44 amino acids, representing the first exon of the TORC1 gene, is nearly 100% conserved in virtually all mammalian, C. elegans and Drosophila TORC proteins, yet has virtually no homology or similarity to any other proteins (Tourgenko et al., 2003). […] HeLa cells are transfected with either the eGFP control or TORC1(1-44)-eGFP with either CRE-luciferase (FIG. 16, panel A) or NFKB-luciferase (panel B) prior to stimulation with 50 uM forskolin/100 uM IBMX or 5 uM ionomycin. In panel C, HEK293 cells are transiently transfected with CRE-luciferase and the β2-adrenergic receptor (β2AR) in combination with either the empty CMV vector, eGFP, or TORC1(1-44)-eGFP fusion and exposed to isoproterenol for 18 hours. […] Thus blockade of TORC function also prevents CRE-activation through a Gs-linked GPCR using isoproterenol.

NF-kappaB reporter = assay: NFKB-luciferase reporter with dominant negative TORC1(1-44)-eGFP in HeLa cells; format: cell-based
Text: (§1) The siRNA results (Example 12) are complicated by the need to use multiple siRNAs and to block multiple TORCs. In order to efficiently block activity of all TORC proteins more readily, a dominant interfering TORC protein is designed which fuses the highly conserved 44 amino-acid CREB-binding domain of TORC1 to eGFP (T1-44eGFP). To block activity of all TORC proteins efficiently, a dominant interfering protein that should specifically block the ability of all TORC's to interact with CREB1 is designed. The CREB1 interaction domain of TORC proteins is present in the first 44 amino acids of TORC1. The N-terminal 44 amino acids, representing the first exon of the TORC1 gene, is nearly 100% conserved in virtually all mammalian, C. elegans and Drosophila TORC proteins, yet has virtually no homology or similarity to any other proteins (Tourgenko et al., 2003). […] HeLa cells are transfected with either the eGFP control or TORC1(1-44)-eGFP with either CRE-luciferase (FIG. 16, panel A) or NFKB-luciferase (panel B) prior to stimulation with 50 uM forskolin/100 uM IBMX or 5 uM ionomycin. In panel C, HEK293 cells are transiently transfected with CRE-luciferase and the β2-adrenergic receptor (β2AR) in combination with either the empty CMV vector, eGFP, or TORC1(1-44)-eGFP fusion and exposed to isoproterenol for 18 hours. […]

CRE-luciferase [2] = assay: CRE-luciferase with β2-adrenergic receptor and isoproterenol in HEK293 cells; format: cell-based; settings: HEK293 transiently transfected; isoproterenol 18 hours
Text: as §1

TORC1-eGFP [3] = assay: TORC1 (FLAG-TORC1 / TORC1-eGFP) nuclear translocation in HeLa cells, fluorescence microscopy; format: cell-based, human
Procedure: Generation of stable TORC-eGFP cell lines. HeLa cells are transfected with pCMV-TORC1-eGFP and stable integrants are selected with 700 ug/ml geneticin. A single colony that expressed TORC1-eGFP is isolated and expanded (HhTORC1eGFP cells). […]
HeLa cells are transfected with FLAG-TORC1 (FIG. 1, panels A and B) or TORC1-eGFP (panels C and D). Cells are either untreated (panels A and C) or treated with 10 nM leptomycin-B (LMB), a fungal inhibitor of CRM1 mediated nuclear export of proteins, for 90 min (panels B and D). FLAG-tagged protein is visualized by immunofluorescence while eGFP-tagged proteins are directly visualized by fluorescence. […] Since a variety of signal transduction proteins are regulated by either nuclear export or stimulus induced import, the localization of TORC1 is examined after treatment with LMB. […]

dTORC-eGFP = dTORC-eGFP translocation in Drosophila larval salivary glands; format: cell-based; settings: 5 uM ionomycin 1 hour; 100 uM db-cAMP 4 hours
Procedure: Drosophila Methods. The Gal4 responder construct, UAS-GFP-TORC, is created by PCR cloning the eGFP gene from the pEGFP—N1 vector (Clontech # 6085-1) and the dTORC gene from Drosophila genomic DNA into the pUAST vector (Brand and Perrimon, 1993). This construct is injected into Drosophila embryos by P-element germline transformation to create transgenic lines (Rubin and Spradling, 1982). To induce expression of the fusion protein, flies containing UAS-GFP-TORC are crossed to flies containing the HS-Gal4 construct obtained from the Bloomington Stock Center, University of Indiana, Bloomington, Ind. The larvae are heat-shocked at […] and salivary glands from late third instar larvae were dissected in PBS, placed in Sang M3 media (Sigma #S3652) containing various chemical treatments in a 96-well plate. The glands are visualized using the Nikon Eclipse TE2000-E fluorescent microscope. Images are taken at a 100× magnification.
A fusion of eGFP and the Drosophila TORC (dTORC) protein is generated. […] Salivary glands dissected from transgenic larvae expressing the dTORC fusion protein are examined by microscopy. dTORC-eGFP is localized in the cytoplasm in all of the cells in the gland (FIG. 17, panels A and D). […] Thus, the localization of TORC in Drosophila is regulated by cAMP and calcium, just as in human cells. […]

CRE-driven luciferase = assay: CRE-dependent luciferase reporter in HeLa and HeLa::TORC1-eGFP cells; format: cell-based; settings: 18 hours; for activation of CRE-driven luciferase in naïve HeLa cells: 5 uM ionomycin, 10 uM PMA
Text: To determine the effect of TORC1 over-expression and localization on gene expression, CRE-dependent transcription is compared in untransfected HeLa cells and HeLa cells stably expressing TORC1-eGFP using a luciferase reporter containing a CRE-dependent promoter.

TORC2-eGFP = TORC2-eGFP nuclear translocation in HEK293 cells, fluorescence microscopy; format: cell-based, human; settings: for translocation of TORC2-eGFP to the nucleus: 45 min, 10 nM LMB, 10 uM ionomycin, or both
Procedure: (§2) HEK293 cells are transfected with either pCMV-TORC1-eGFP, pCMV-TORC2-eGFP or pCMV-TORC3-eGFP linearized with AseT restriction endonuclease and stable integrants are selected with 700 ug/ml geneticin generating a population of cells that express TORC-eGFP. These are referred to as 293hTORC1, 293hTORC2 or 293hTORC3 cells, respectively. All of the stable TORC-eGFP cell-lines are subjected to fluorescence activated cell sorting to remove non-fluorescing cells.
(§3) The localization of human TORC2 and TORC3 is also examined. Both HeLa cells and HEK293 cells are transfected with either pCMV-TORC2-eGFP or pCMV-TORC3-eGFP.
(§4) In order to assess this possibility, HeLa cells stably expressing TORC1-eGFP are exposed to either no treatment (FIG. 5, panel A), 50 uM forskolin and 100 uM IBMX (panel B), or 1 mM db-cAMP (panel C) for 2 hours. […] Similarly, HEK293 cells stably expressing TORC2-eGFP (FIG. 5, panels D and E) or TORC3-eGFP (panels F and G) are either untreated (panels D and F) or treated with 25 uM forskolin for 1 hour (panels E and G).

TORC3-eGFP = TORC3-eGFP nuclear translocation in HEK293 cells, fluorescence microscopy; format: cell-based, human; settings: for translocation of TORC3-eGFP to the nucleus: 45 min, 10 nM LMB, 10 uM ionomycin, or both
Procedure: as §2, §3, §4

TORC1-eGFP [4] = assay: TORC1-eGFP nuclear translocation in stably expressing HEK293 cells; format: cell-based, human; settings: stable HEK293; for translocation of TORC1-eGFP to the nucleus: 45 min, 10 nM LMB, 10 uM ionomycin, or both; for TORC1-eGFP fluorescence localization: 1 hr, 10 nM LMB alone, 160 nM isoproterenol alone, or isoproterenol plus LMB
Procedure: as §2
To assess whether TORC translocation is induced by stimulation of endogenous G-protein coupled receptors (GPCRs), HEK293 cells stably expressing various TORC-eGFP fusions are treated with isoproterenol, a β2-adrenergic receptor agonist, for 1 hr.

[5] = transfected HEK293, LMB treatment
[6] = stable HEK293, 160 nM isoproterenol alone, 1 hr

## T1(1-44)eGFP: dominant interfering protein fusing the 44 amino-acid CREB-binding domain of TORC1 to eGFP (MATSNNPRKFSEKIALHNQKQAEETAAFEEVMKDLSLTRAARLQ; also: fused to eGFP)
CRE-luciferase [1]; HeLa, 50 uM forskolin/100 uM IBMX or 5 uM ionomycin
  effect on CRE activation through forskolin/IBMX or ionomycin and PMA: potently blocks CRE activation
CRE-luciferase [1]; data not shown
  effect on activity of all three TORCs on CRE-activation: inhibited
  effect on enhanced CRE-response in HhTORC1 cells: effectively blocked
NF-kappaB reporter
  effect on activation of NF-kappaB reporter by ionomycin and PMA: no effect on activation of an NF-kappaB reporter
CRE-luciferase [2]
  effect on CRE-luciferase induction by β2AR and isoproterenol: strongly inhibits CRE-luciferase induction

## CCCC(=O)Nc1ncnc2c1ncn2[C@@H]1O[C@@H]2COP(=O)(O)O[C@H]2[C@H]1OC(=O)CCC [db-cAMP, dibutyryl cyclic-AMP]
TORC1-eGFP [3]; HeLa stable TORC1-eGFP, 50 uM forskolin and 100 uM IBMX, or 1 mM db-cAMP, 2 hours
  translocation of TORC1-eGFP on raising intracellular cAMP: partial translocation of TORC1-eGFP
dTORC-eGFP
  translocation of dTORC-eGFP into the nucleus: induced translocation of dTORC-eGFP into the nucleus

## CCCCCCCCCCCCCC(=O)O[C@@H]1[C@@H](C)[C@@]2(O)[C@@H](C=C(CO)C[C@]3(O)C(=O)C(C)=C[C@@H]23)[C@@H]2C(C)(C)[C@]12OC(C)=O [PMA, Phorbol 12-myristate 13-acetate]
TORC1-eGFP [3]; HeLa stable TORC1-eGFP, 10 uM PMA, 1 hour
  accumulation of TORC1-eGFP in the nucleus in response to PMA: induced TORC1-eGFP to accumulate in the nucleus
CRE-driven luciferase
  activation of CRE-driven luciferase in naïve HeLa cells: modest level of activation

## CCC(=C/[C@H](C)C/C=C/C(C)=C/[C@@H](C)C(=O)[C@@H](C)[C@H](O)[C@@H](C)C/C(C)=C/C(=O)O)/C=C/[C@@H]1OC(=O)C=C[C@@H]1C [LMB, Leptomycin B]
TORC1-eGFP [3]; HeLa cells, data not shown
  time to near complete TORC1 translocation following LMB exposure: less than 30 minutes
TORC1-eGFP [3]; HeLa transfected with FLAG-TORC1 or TORC1-eGFP, 10 nM LMB, 90 min
  subcellular localization of TORC1 fusion proteins: present predominantly in the nucleus
TORC1-eGFP [3]; HeLa, 384-well plates, Cellomics ArrayScan II
  TORC1-eGFP translocation (nuclear-cytoplasmic fluorescence difference), positive control of cDNA screen: detected in virtually all control wells
TORC2-eGFP; stable HEK293
  time until TORC2-eGFP becomes predominantly nuclear following LMB exposure: ≤ 120 min
  translocation of TORC2-eGFP to the nucleus: weak or no translocation to the nucleus
TORC2-eGFP; [5]
  nuclear accumulation of TORC2-eGFP: induces accumulation of both proteins in the nuclei
TORC3-eGFP; stable HEK293
  time until TORC3-eGFP becomes predominantly nuclear following LMB exposure: approximately 90 min
  translocation of TORC3-eGFP to the nucleus: weak or no translocation to the nucleus
TORC3-eGFP; [5]
  nuclear accumulation of TORC3-eGFP: induces accumulation of both proteins in the nuclei
TORC1-eGFP [4]
  translocation of TORC1-eGFP to the nucleus: weak or no translocation to the nucleus
  TORC1-eGFP fluorescence localization: eGFP fluorescence originating from the cytoplasm
CRE-driven luciferase; 10 nM LMB, naïve HeLa vs HeLa::TORC1-eGFP
  induction of CRE-driven luciferase: significant induction only in the HeLa::TORC1-eGFP cells

## C[C@H](CCC(=O)O)C[C@H](C)C[C@H](C)C(=O)/C=C(\O)[C@H](C)C[C@H](C)C/C=C/[C@@H](C)[C@@H](O)[C@@H](C)[C@@H](O)C[C@@H]1CC[C@@](C)([C@H]2CC[C@@](C)([C@@H](C)O)O2)O1 [ionomycin]
TORC1-eGFP [3]; HeLa stable TORC1-eGFP, 1 uM ionomycin or 10 uM CPA, 1 hour
  accumulation of TORC1-eGFP in the nucleus in response to calcium: potently induce accumulation of the TORC1-eGFP in the nucleus
TORC2-eGFP; stable HEK293
  translocation of TORC2-eGFP to the nucleus: weak or no translocation to the nucleus
TORC3-eGFP; stable HEK293
  translocation of TORC3-eGFP to the nucleus: weak or no translocation to the nucleus
TORC1-eGFP [4]
  translocation of TORC1-eGFP to the nucleus: weak or no translocation to the nucleus
CRE-driven luciferase
  activation of CRE-driven luciferase in naïve HeLa cells: modest level of activation
dTORC-eGFP
  translocation of dTORC-eGFP into the nucleus: induced translocation of dTORC-eGFP into the nucleus

## CC(C)NCC(O)c1ccc(O)c(O)c1 (stereo not drawn) [isoproterenol, Isoproterenol]
TORC2-eGFP; [6]
  TORC2-eGFP fluorescence localization: fluorescence from the nucleus occurs
TORC3-eGFP; [6]
  TORC3-eGFP fluorescence localization: fluorescence from the nucleus occurs
TORC1-eGFP [4]
  TORC1-eGFP fluorescence localization: eGFP fluorescence originating from the cytoplasm
